Test results reported in patent US20070010466A1 (priority 2005, published 2007).
Entries after “also recorded” stand apart in the source; their conditions may differ.

What was measured:
[1] = clinical trials; cited from earlier work
[2] = target: T1, P-gp function on circulating natural killer (NK) cells and leukemic blasts (Homo sapiens, UniProt P08183); assay: cellular P-gp function, DiOC2 accumulation assay with flow cytometry, in AML patients; type: in vivo
T1 construct: Pharmacodynamic assessments of cellular P-gp function were conducted using an accumulation assay with DiOC2 and flow cytometry; endogenous in cells; host or cells: circulating NK cells and leukemic blasts from AML patients
T1 sequence (P08183 whole entry): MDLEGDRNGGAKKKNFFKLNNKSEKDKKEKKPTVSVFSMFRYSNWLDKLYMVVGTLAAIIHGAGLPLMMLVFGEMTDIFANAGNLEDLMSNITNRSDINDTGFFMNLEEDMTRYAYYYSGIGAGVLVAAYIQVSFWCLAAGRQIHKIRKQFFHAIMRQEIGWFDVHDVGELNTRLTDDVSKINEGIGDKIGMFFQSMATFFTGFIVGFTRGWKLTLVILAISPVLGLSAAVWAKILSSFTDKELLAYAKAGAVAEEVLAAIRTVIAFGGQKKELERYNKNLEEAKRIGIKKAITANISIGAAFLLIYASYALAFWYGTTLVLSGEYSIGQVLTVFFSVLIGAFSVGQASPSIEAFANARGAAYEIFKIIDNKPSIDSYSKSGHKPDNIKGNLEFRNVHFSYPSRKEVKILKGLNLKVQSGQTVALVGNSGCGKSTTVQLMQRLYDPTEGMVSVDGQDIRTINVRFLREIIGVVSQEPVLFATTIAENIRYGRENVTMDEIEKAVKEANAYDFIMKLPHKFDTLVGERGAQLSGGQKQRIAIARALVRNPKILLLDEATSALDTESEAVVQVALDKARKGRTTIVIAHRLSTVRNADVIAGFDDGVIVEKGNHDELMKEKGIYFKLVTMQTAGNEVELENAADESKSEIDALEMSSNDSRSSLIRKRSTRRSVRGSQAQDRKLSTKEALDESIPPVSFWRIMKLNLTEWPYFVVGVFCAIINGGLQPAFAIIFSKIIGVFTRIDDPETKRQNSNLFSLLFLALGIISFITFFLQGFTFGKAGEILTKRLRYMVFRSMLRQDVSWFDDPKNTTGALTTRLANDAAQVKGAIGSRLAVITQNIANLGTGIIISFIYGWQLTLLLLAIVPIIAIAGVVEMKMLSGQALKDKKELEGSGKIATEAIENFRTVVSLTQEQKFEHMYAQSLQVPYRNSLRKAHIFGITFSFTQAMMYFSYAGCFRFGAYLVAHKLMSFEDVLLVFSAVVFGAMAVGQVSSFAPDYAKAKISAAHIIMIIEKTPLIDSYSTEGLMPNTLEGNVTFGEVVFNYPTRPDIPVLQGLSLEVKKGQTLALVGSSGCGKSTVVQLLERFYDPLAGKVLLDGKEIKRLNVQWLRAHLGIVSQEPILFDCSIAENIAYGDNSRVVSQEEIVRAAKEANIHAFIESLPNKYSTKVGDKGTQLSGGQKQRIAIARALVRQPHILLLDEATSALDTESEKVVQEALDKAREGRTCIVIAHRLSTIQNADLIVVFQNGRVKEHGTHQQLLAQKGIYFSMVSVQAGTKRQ
Procedure: Cytarabine was also administered (100 mg/m^2/day) starting after the first dose of daunorubicin as a continuous intravenous infusion on days 1-7. Blood samples were taken at intervals for pharmacokinetic and pharmacodynamic studies. Pharmacokinetic drug determinations were conducted by HPLC. Pharmacodynamic assessments of cellular P-gp function were conducted using an accumulation assay with DiOC2 and flow cytometry. P-gp function was assessed on circulating natural killer (NK) cells and leukemic blasts. […] Means of 3 patients for each time point are shown.

[3] = preclinical models, several oncolytics; cited from earlier work

SMILES | pharmacokinetic interaction with coadministered cytotoxic agents [1] | continued inhibition of P-gp functional activity after infusion was halted ([2]; after 72 hour infusion) | time to potent inhibition of P-gp function after start of infusion ([2]; both NK cells and leukemic blasts, 700 mg/day continuous iv infusion) | pharmacokinetic interaction with co-administered chemotherapy [3]
C/C=C/C[C@@H](C)C(=O)[C@H]1C(=O)N[C@@H](C(C)C)C(=O)N(C)CC(=O)N(C)[C@@H](CC(C)C)C(=O)N[C@@H](C(C)C)C(=O)N(C)[C@@H](CC(C)C)C(=O)N[C@@H](C)C(=O)N[C@H](C)C(=O)N(C)[C@@H](CC(C)C)C(=O)N(C)[C@@H](CC(C)C)C(=O)N(C)[C@@H](C(C)C)C(=O)N1C [valspodar] | significant pharmacokinetic interactions | – | – | –
O[C@@H](COc1cccc2ncccc12)CN1CCN([C@@H]2c3ccccc3[C@@H]3[C@H](c4ccccc42)C3(F)F)CC1 [zosuquidar] | – | at least 12 hours | ≤ 2 h | no pharmacokinetic interaction; also recorded: minimal pharmacokinetic (PK) interactions
